Data published in patent US20240398989A1, “METHODS AND COMPOSITIONS FOR DIAGNOSIS AND TREATMENT OF METABOLIC DISORDERS” (The Broad Institute, Inc., priority 2021, published 2024).
“Also recorded” adds a separate entry of the source.

Tests used:
[1] = system: visceral adipocytes; test: LipocyteProfiler of isoproterenol-treated vs DMSO-treated visceral adipocytes (AMSCs, day 14); format: cell-based, human; details: for BODIPY-related Granularity (lipid droplet sizes): isoproterenol vs DMSO, across the full granularity size spectra
Protocol: For imaging, cells were seeded at 10K cells/well in 96-well plates (Cell Carrier, Perkin Elmer #6005550) and induced 4 days after seeding. For RNAseq, cells were seeded at 40K cells/well in 12-well dishes (Corning). […] Adipogenic differentiation was induced by changing culture medium to induction medium. […] Visceral-derived AMSCs were differentiated by further adding 2% FBS as well as 0.1 mM oleic and linoleic acid to the induction and differentiation media. For isoproterenol stimulation experiments, 1 μM isoproterenol was added to the differentiation media and cells treated overnight. Human primary AMSCs and PHH were plated in 96-well CellCarrier plates (Perkinelmer #6005550). AMSCs were differentiated for 14 days and high content imaging was performed at day 0, day 3, day 8 and day 14 of adipogenic differentiation. Primary human hepatocytes were stained after 48 h in culture, and 24h following treatment with oleic acid or metformin. On the respective day of the assay, cell culture media was removed and replaced by 0.5 μM Mitotracker staining solution (1 mM MitoTracker Deep Red stock (Invitrogen #M22426) diluted in culture media) to each well followed by 30 minutes incubation at 37° C.' protected from light. […] PFA was removed and cells were washed once with Hank's Balanced Salt Solution (1×), HBSS (Gibco #14025076). […] Finally, staining solution was removed and cells were washed three times with HBSS. Cells were imaged using a Opera Phenix High content screening system. […] Prior to processing, flat field illumination correction was performed using functions generated from the median intensity across each plate. Nuclei were identified using the DAPI stain and then expanded to identify whole cells using the Phalloidin/WGA and BODIPY stains. Regions of cytoplasm were then determined by removing the Nuclei from the Cell segmentations. Speckles of BODIPY staining were enhanced to assist in detection of small and large individual Lipid objects. For each object set measurements were collected representing size, shape, intensity, granularity, texture, colocalization and distance to neighbouring objects. After LipocyteProfiler (LP) feature extraction data was filtered by applying automated and manual quality control steps. […] Second, every field was assessed visually and fields that were corrupted by experimental induced technical artifacts were removed. Furthermore, blocklisted features (Way, Gregory (2019): Blocklist Features-Cell Profiler. figshare. […] After filtering data were normalised per plate using a robust scaling approach (Pedregosa et al. 2011) that subtracts the median from each variable and divides it by the interquartile range. Individual wells were aggregated for downstream analysis by cell depot and day of differentiation.

[2] = system: subcutaneous adipocytes; test: LipocyteProfiler of isoproterenol-treated vs DMSO-treated subcutaneous adipocytes (AMSCs, day 14); format: cell-based, human; details: subcutaneous adipocytes/AMSCs at day 14, isoproterenol
Protocol: For imaging, cells were seeded at 10K cells/well in 96-well plates (Cell Carrier, Perkin Elmer #6005550) and induced 4 days after seeding. For RNAseq, cells were seeded at 40K cells/well in 12-well dishes (Corning). […] Adipogenic differentiation was induced by changing culture medium to induction medium. […] Visceral-derived AMSCs were differentiated by further adding 2% FBS as well as 0.1 mM oleic and linoleic acid to the induction and differentiation media. For isoproterenol stimulation experiments, 1 μM isoproterenol was added to the differentiation media and cells treated overnight. Human primary AMSCs and PHH were plated in 96-well CellCarrier plates (Perkinelmer #6005550). AMSCs were differentiated for 14 days and high content imaging was performed at day 0, day 3, day 8 and day 14 of adipogenic differentiation. Primary human hepatocytes were stained after 48 h in culture, and 24h following treatment with oleic acid or metformin. […] Regions of cytoplasm were then determined by removing the Nuclei from the Cell segmentations. […] Second, every field was assessed visually and fields that were corrupted by experimental induced technical artifacts were removed. […]

CC(C)NCC(O)c1ccc(O)c(O)c1 (stereo not shown) [isoproterenol]
Mitochondrial Intensity ([1]; 24 hour isoproterenol (1 μM) vs DMSO-treated controls, day 14, p=0.0413): increases
mitochondrial Texture_Entropy ([1]; 24 hour isoproterenol vs DMSO-treated controls, p=0.0092): differences; also recorded: increases
BODIPY Texture Entropy ([1]; 24 hour isoproterenol vs DMSO-treated controls, p=0.032): decrease
BODIPY MedianIntensity ([1]; 24 hour isoproterenol vs DMSO-treated controls, p=0.041): decrease
BODIPY-related Granularity (lipid droplet sizes) [1]: decreased
BODIPY-related Granularity (lipid droplet sizes) ([1]; listed as Isoproterenol): reduces
effect on morphological profile [2]: no effect
